Experimental data taken from patent US11214567B2, “Small molecule inhibitors of MYC and uses thereof” (The Regents of the University of Michigan, priority 2017, dated 2022).
Entries after “also recorded” stand apart in the source; their conditions may differ.

System: C-MYC
Experiment: Western blotting of C-MYC protein levels in cancer cells
Assay type: cell-based, human
Method: Cells (5×10^5) were cultured in 6-well plate and treated with KJA03 at designated concentrations. After treatment, cells were lysed with cell lysis buffer on ice at 4° C., sonicated for 3 min, centrifuged (12,000 rpm, 10 min, 4° C.) and then, the supernatant was collected. Protein concentrations of supernatants were evaluated with BCA assay. Proteins were resolved in 10% SDS/PAGE and electrotransferred to Immun-Blot PVDF membrane (Bio-Rad). After blocking with 5% milk in TBST (Tris-buffered saline with 0.1% Tween 20), membranes were probed with primary antibodies (anti-PARP, anti-caspase 3 and anti-GAPDH) 1:1000 dilutions overnight at 4° C. Membranes were then washed with TBST (5 min×3), incubated with Dylight 800-conjugated secondary antibodies 1:7500 dilutions in 5% milk for 1 h at room temperature, and washed with TBST (5 min×3). Fluorescent signal was then scanned by Odyssey Imaging Systems (LI-COR Biosciences).
The effect of KJA03 on the MYC protein levels, including C-MYC and N-MYC, NCI/ADR-RES cells were treated with KJA03 at concentration of 0.1 (half IC50) and 0.2 (IC50) μM for 24 and 48 h. […] It has previously been reported that JQ1 treatment leads to down-regulation of c-MYC protein levels in osteosarcoma, leukemia and lymphoma cells (see, e.g., Mertz, J. A.; et al., Proceedings of the National Academy of Sciences 2011, 108, 16669-16674).
Experiments were conducted to further repeat the experiment and JQ1 was chosen as a positive control. As expected, expression of C-MYC was reduced by KJA03 at 24 h of treatment, correlated with previous experiment (FIG. 3).
Experiments were conducted that further performed a time-course experiment to evaluate C-MYC suppression including 2, 6, 8 24 and 48 h at concentration of 0.2 μM. To define the specificity of MYC suppression in further detail, we treated cells with a range of compound concentrations at 24 h. […] To determine whether KJA03 can suppress C-MYC in different cell lines, we next investigated the level of C-MYC in response to treatment with KJA03 at 0.2 μM using other three different OVCAR8, MIA PaCa-2 and Panc-1 cell lines.

Cc1ccc(-c2noc(-c3ccccc3-n3c(-c4ccc(C)cc4)noc3=O)n2)cc1 [KJA03, 3-(P-tolyl)-4-(2-(3-(p-tolyl)-1,2,4-oxadiazol-5-yl)phenyl)-1,2,4-oxadiazol-5(4H)-one]
MYC suppression, ovarian versus pancreatic cancer cells (0.2 μM, OVCAR8, NCI/ADR-RES, MIA PaCa-2 and Panc-1): suppresses MYC strongly in ovarian cancer cells | MYC protein levels (0.1 (half IC50) and 0.2 (IC50) μM at 24 and 48 h): significantly reduce MYC protein levels | C-MYC protein levels, range of concentrations (MiaPaca-2): down-regulated dose-dependently | C-MYC protein levels (NCI/ADR-RES cells, 0.2 μM, 24 h): reduced C-MYC levels; also recorded: efficiently decrease the C-MYC protein levels | C-MYC suppression, time-course (NCI/ADR-RES, 0.2 μM, 2, 6, 8, 24 and 48 h): significantly suppressed only at 24 h | C-MYC protein levels, range of concentrations (NCI/ADR-RES, 24 h): decreased levels of C-MYC in a dose-dependent manner; also recorded: down-regulated dose-dependently | C-MYC protein levels, range of concentrations (OVCAR8): down-regulated dose-dependently | C-MYC protein levels, range of concentrations (Pac-1): down-regulated dose-dependently
